Active and inactive are the calls of the source. The rule behind the calls is not given here.
How the values were obtained:
Leptothorax = experiment: Insecticidal activity against Leptothorax sp. assessed as number of dead ants at 0.5 mg after 6 to 24 hrs relative to control; format: functional
Culex pipiens molestus = experiment: Insecticidal activity against Culex pipiens molestus larvae at 10 to 50 mg/L after 6 to 24 hrs; format: functional, organism-based

SMILES	Activity (Leptothorax) [%]	Activity (Culex pipiens molestus)
C=C[C@]1(C)CCC2=C(CC[C@H]3[C@](C)(COC(=O)C(C)CC)CC[C@H](O)[C@]23C)[C@@H]1OC(C)=O (stereo partly specified) [PARNAPIMAROL]	31	inactive
CC1=C2CC[C@@H](C)[C@@]23C(=O)O[C@H]1[C@@]12C(=O)O[C@H]3C(C)=C1CC[C@@H]2C [NEPETAPARNONE]	55	inactive
CC1=C2CC[C@H](C)[C@@]23C(=O)O[C@H]1[C@@]12C(=O)O[C@H]3C(C)=C1CC[C@@H]2C [NEPETANUDONE]	45	inactive

From ChEMBL document CHEMBL1150235, “Parnapimarol and nepetaparnone from Nepeta parnassica” (2008)
